Assay results from patent US20070281938A1, “Inhibitors of 11-Beta-Hydroxy Steroid Dehydrogenase Type 1” (Amgen Inc., priority 2004, published 2007).

molecular target: T1, human 11-β-hydroxysteroid dehydrogenase type-1 enzyme (11-β-HSD1) (Homo sapiens, UniProt P28845); assay: Scintillation Proximity Assay, 11-β-HSD1 enzyme assay (Ki); assay type: biochemical; settings: human 11-β-HSD1 expressed in Pichia pastoris; Ki calculated from IC50 (Cheng-Prusoff)
T1 construct: made in house; host or cells: Pichia pastoris (cell homogenate or microsomes)
Excerpt: [1,2(n)—^3H]-cortisone was purchased from Amersham Pharmacia Biotech. Anti-cortisol monoclonal mouse antibody, clone 6D6.7 was obtained from Immunotech and Scintillation proximity assay (SPA) beads coated with monoclonal antimouse antibodies were from Amersham Pharmacia Biotech. NADPH, tetrasodium salt was from Calbiochem and glucose-6-phosphate (G-6-P) was supplied by Sigma. The human 11-β-hydroxysteroid dehydrogenase type-1 enzyme (11-β-HSD1) was expressed in Pichiapastoris. 18-β-glycyrrhetinic acid (GA) was obtained from Sigma. The serial dilutions of the compounds were performed on a Tecan Genesis RSP 150. Compounds to be tested were dissolved in DMSO (1 mM) and diluted in 50 mM Tris-HCl, pH 7.2 containing 1 mM EDTA.
The multiplication of plates was done on a WallacQuadra. The amount of the product [^3H]-cortisol, bound to the beads was determined in a Packard, Top Count microplate liquid scintillation counter.
The 11-β-HSD1 enzyme assay was carried out in 96 well microtiter plates (Packard, Optiplate) in a total well volume of 220 μL and contained 30 mM Tris-HCl, pH 7.2 with 1 mM EDTA, a substrate mixture tritiated Cortisone/NADPH (175 nM/181 μM), G-6-P (1 mM) and inhibitors in serial dilutions (9 to 0.15 μM). […]
The plates were covered with plastic film and incubated on a shaker for 30 minutes, at room temperature, before counting. The amount of [^3H]-cortisol, bound to the beads was determined in a microplate liquid scintillation counter. […] The Ki value is calculated from IC50 and the Km value is calculated using the Cheng Prushoff equation (with reversible inhibition that follows the Michaelis-Menten equation): […] [Cheng, Y. C.; Prushoff, W. H. Biochem. Pharmacol. 1973, 22, 3099-3108]. The IC50 is measured experimentally in an assay wherein the decrease of the turnover of cortisone to cortisol is dependent on the inhibition potential of each substance. […]

T1 sequence (P28845 whole entry): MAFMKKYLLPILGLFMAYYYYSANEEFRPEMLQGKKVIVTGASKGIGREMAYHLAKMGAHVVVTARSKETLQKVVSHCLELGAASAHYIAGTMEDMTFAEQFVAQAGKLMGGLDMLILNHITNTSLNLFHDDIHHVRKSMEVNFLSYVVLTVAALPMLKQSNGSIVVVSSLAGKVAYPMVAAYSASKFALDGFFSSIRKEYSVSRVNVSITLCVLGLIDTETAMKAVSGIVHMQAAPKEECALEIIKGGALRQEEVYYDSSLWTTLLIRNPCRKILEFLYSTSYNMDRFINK

SMILES	Ki [nM]
CC1(C)SC(NCC2CCCCC2)=NC1=O [Example 14, 2-[(cyclohexylmethyl)amino]-5,5-dimethyl-1,3-thiazol-4(5H)-one]	107
CC(C)C1SC(NC2(c3ccc(Cl)cc3)CCC2)=NC1=O (stereo not drawn) [Example 48, 2-{[1-(4-Chlorophenyl)cyclobutyl]amino}-5-isopropyl-1,3-thiazol-4(5H)-one]	174
O=C1N=C(NC2CCCCCC2)SC12CCC2 [Example 10, 6-(Cycloheptylamino)-5-thia-7-azaspiro[3.4]oct-6-en-8-one]	250
